From patent publication US11596623B2, “Methods for treating virus infection or proliferation” (HOWARD UNIVERSITY, priority 2018, dated 2023)
Entries after “also recorded” stand apart in the source; their conditions may differ.

Tests used:
HSV-1 = test: Immunofluorescence and confocal microscopy of ICP0; assay type: cell-based; conditions: 10 μM, HSV-1 MOI 1.0, 30 h
Procedure: The HEp-2 cells were infected with HSV-1 at an MOI of 1.0 for 30 h along with the indicated compounds and control. The no-virus control (A), vehicle DMSO treated (B) and SD29-14 10 μM treated (C) cells were fixed with 4% paraformaldehyde and stained with anti-ICP0-FITC (green) and DAPI for DNA (blue) in the nucleus. The slides were observed under a Nikon confocal microscope (60× magnification lens) and pictures were taken to show infected cells (green) and total cells (DAPI). All scale bars correspond to 20 μm. The imaging experiments were performed three independent times, and the results shown represent one of the three experiments. (D) Quantification of fluorescent cells by Image based cell sorting in a Cellometer (Nexcelom Vision). […] The cells were prepared by immunostaining with ICP0 antibody after 24-h incubation with the indicated compounds. The total cell counts were 1.01×10^6/ml, 4.69×10^6/ml, and 5.36×10^6/ml for DMSO, SD29-14 (10 μM), and SD29-14 (100 μM) respectively. The numbers show the mean±SE of three replicates.
Hep-2 cells were grown to about 80% confluency in 12 well plate and the cells were co-infected with HSV-1 at an MOI of 1.0 for 30 h along with the indicated inhibitor compounds and control. The cells were fixed at room temperature with 4% paraformaldehyde-PBS for 15 minutes and then permeabilized at room temperature by 0.5% Triton X-100-PBS (pH 7.4) for 10 min. […]

EV-D68 = EV-D68 VP1 western assay in HEp-2 cells; assay type: cell-based; conditions: 48 h; for EV-D68 proliferation / major structural protein VP1: HEp-2 cells, western
Procedure: HEp-2 cells were grown to 80-90% confluency in Dulbecco's Modified Eagle's medium (DMEM) supplemented with 10% fetal calf serum (FCS) and 1% penicillin-streptomycin (PS) and fungicide. The virus and the indicated concentration of compounds were added and incubated for 48 h. After washing with PBS, the cell lysates were collected and were run in a Biorad XT-Criterion gel and transferred to a PVDF membrane. The membrane was blotted with an antibody directed against the EVD68 major structural protein VP1 purchased from Genetex (Irvine, Calif.). An anti-mouse IgG-HRP secondary antibody and Biorad's Western ECL substrate-Clarity was used to label the bands and the image was obtained in a Biorad Gel doc system. […] The tubulin antibody was used as the loading control.
HEp-2 cells were grown to 80-90% confluency in Dulbecco's Modified Eagle's medium (DMEM) supplemented with 10% fetal calf serum (PCS) and 1% penicillin-streptomycin (PS) and 1% fungicide. The EV-D68 virus and the indicated concentration of compounds were added and incubated for 48 h. After washing with PBS, the cell lysates were collected and were run in a Biorad Stain free TGX gel and were transferred to a PVDF membrane. The membrane was blotted with an antibody directed against the EV-D68 major structural protein VP1 purchased from Genetex (Irvine, Calif.). An antimouse IgG-HRP secondary antibody and Biorad's Western ECL substrate-Clarity was used to label the bands and the image was obtained in a Biorad Gel doc system. […] The non-specific band high above the VP1 band indicate that all virus treated lanes were loaded with equal amount of lysates. The identity of the EV-D68 VP1 protein is confirmed by the lack of the 33 kD band in the no virus lane.
HEp-2 cells were grown to 80-90% confluency in Dulbecco's Modified Eagle's medium (DMEM) supplemented with 10% fetal calf serum FCS and 1% penicillin-streptomycin (PS) and fungicide. The representative virus (EV-D68) and the indicated concentration of compounds were added and incubated for 48 h. […]

Nn1c(S)nnc1-c1cc(Cl)cc(Cl)c1 [SD29-14]
ICP0 protein expression (immunofluorescence) (HSV-1): effectively eliminated any expression of ICP0 protein
EV-D68 proliferation / major structural protein VP1 (EV-D68): inhibits EV-D68 proliferation in a dose dependent way; also recorded: effectively inhibited the viral major structural protein VP1
EV-D68 proliferation / major structural protein VP1 (EV-D68; listed as SD 29-14): inhibits proliferation of a representative virus (EV-D68), in a dose dependent way
efficacy in inhibiting EV-D68 compared with SD29 and SD29-12 (EV-D68; VP1 western): better efficacy
